From the supplement of paper PMC10307832

What was measured:
Test in all cases: relative viability (nuclei count vs DMSO), 5 days (fraction); higher = more cells survive
[1] = compound: C1=CC2=NC=CN=C2C=C1/C=C/3\C(=O)NC(=O)S3 + CC1(C)CCC(c2ccc(Cl)cc2)=C(CN2CCN(c3ccc(C(=O)NS(=O)(=O)c4ccc(N[C@H](CCN5CCOCC5)CSc5ccccc5)c(S(=O)(=O)C(F)(F)F)c4)cc3)CC2)C1 [Navitoclax] (partner 0.5 µM)
In short: (§1)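 Lung cancer cell lines were pin-tool dosed in 1536-well plates on the day after seeding, with either a lone drug or a fixed anchor-drug dose plus five library-drug doses (not always all listed) in √10 steps. Nuclei were counted on 4× images after 5 days. Relative viability is the ratio of treated-well to vehicle-well nuclei counts, with each value a median of duplicate plates.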

[2] = compound: C1=CC2=NC=CN=C2C=C1/C=C/3\C(=O)NC(=O)S3 + COc1cc2c(Oc3ccc(NC(=O)C4(C(=O)Nc5ccc(F)cc5)CC4)cc3F)ccnc2cc1OCCCN1CCOCC1 [Foretinib] (partner 0.25 µM)
In short: as §1

BGJ398 = compound: CCN1CCN(c2ccc(Nc3cc(N(C)C(=O)Nc4c(Cl)c(OC)cc(OC)c4Cl)ncn3)cc2)CC1 [BGJ398]
In short: (§2)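 Viability is treated-well nuclei as a fraction of vehicle-well nuclei, reported as the median across plates. Before counting, lung cancer cell lines were kept overnight at 37 °C in 1536-well plates, pinned with five √10-spaced library-drug doses on vehicle-anchored plates, and left 5 days without medium change, then fixed, permeabilised and Hoechst-stained in one step, imaged at 4× and counted by MetaXpress. A plate passed only if control CV was below 25% and at least one doubling occurred.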

[3] = compound: C1=CC2=NC=CN=C2C=C1/C=C/3\C(=O)NC(=O)S3
In short: as §2

Cell Line | relative viability ([1]; first compound 0.02 µM) | relative viability ([1]; first compound 0.06325 µM) | relative viability ([1]; first compound 0.2 µM) | relative viability ([1]; first compound 0.6325 µM) | relative viability ([1]; first compound 2 µM) | relative viability ([2]; first compound 0.02 µM) | relative viability ([2]; first compound 0.06325 µM) | relative viability ([2]; first compound 0.2 µM) | relative viability ([2]; first compound 0.6325 µM) | relative viability ([2]; first compound 2 µM) | relative viability (BGJ398; 0.01 µM) | relative viability (BGJ398; 0.03162 µM) | relative viability (BGJ398; 0.1 µM) | relative viability (BGJ398; 0.3162 µM) | relative viability (BGJ398; 1 µM) | relative viability ([3]; 0.02 µM) | relative viability ([3]; 0.06325 µM) | relative viability ([3]; 0.2 µM) | relative viability ([3]; 0.6325 µM) | relative viability ([3]; 2 µM)
NCI-H1944 | 1.02 | 1.05 | 1.08 | 0.95 | 1.04 | 0.814 | 0.78 | 0.885 | 0.795 | 0.903 | 0.869 | 0.985 | 0.973 | 0.873 | 0.946 | 0.902 | 1.07 | 1.09 | 0.871 | 0.77
EPLC-272H | 1.08 | 1.03 | 1.41 | 1.01 | 1.1 | 0.846 | 0.693 | 0.696 | 0.664 | 0.611 | 0.898 | 0.899 | 0.911 | 0.785 | 0.778 | 0.939 | 0.902 | 0.98 | 0.799 | 0.733
EBC-1 | 0.43 | 0.437 | 0.545 | 0.38 | 0.51 | – | 0.105 | 0.0907 | 0.0919 | 0.11 | 0.975 | 0.981 | 1.09 | 1.03 | 1.14 | 0.913 | 1.04 | 0.957 | 1.05 | 1.01
NCI-H1915 | 0.757 | 0.796 | 0.806 | 0.732 | 0.797 | 1.11 | 1.12 | 1.15 | 1.09 | 1.04 | 0.971 | 1.02 | 0.995 | 0.965 | 0.939 | 0.98 | 1.1 | 1.07 | 0.966 | 0.966
NCI-H596 | 0.902 | 0.96 | 0.977 | 0.883 | 0.951 | 0.856 | 0.863 | 1.05 | 0.742 | 0.899 | 1.13 | 0.931 | 0.978 | 0.92 | 0.8 | 1.06 | 0.938 | 1.1 | 0.834 | 0.867
NCI-H322M | 1.05 | 1.12 | 1.35 | 1.11 | 1.16 | 0.969 | 0.918 | 0.932 | 0.906 | 0.669 | 1.07 | 0.754 | 0.948 | 0.815 | 1.02 | 0.935 | 0.969 | 0.995 | 0.916 | 0.739
NCI-H1299 | 1.04 | 1.08 | 1.04 | 1.04 | 1.06 | 1.01 | 1.11 | 1.11 | 1.09 | 1.15 | 0.99 | 1.05 | 1 | 0.993 | 1.02 | 0.996 | 1.04 | 1.02 | 1 | 1.01
NCI-H2228 | 1.15 | 0.868 | 1.44 | 0.671 | 0.607 | 0.834 | 1.05 | 0.961 | 0.841 | 0.749 | 0.814 | 1.18 | 1.38 | 0.876 | 0.963 | 0.898 | 1.06 | 1.22 | 0.898 | 0.842
IA-LM | 0.71 | 0.943 | 0.91 | 0.96 | 0.845 | 1.15 | 1.28 | 1.15 | 1.2 | 1.25 | 0.918 | 1.05 | 0.974 | 0.875 | 0.901 | 0.943 | 1.09 | 0.926 | 0.997 | 0.99
NCI-H647 | 0.945 | 1.36 | 1.08 | 1.14 | 1.25 | 1.1 | 1.39 | 1.17 | 1.11 | 1.21 | 0.869 | 1.07 | 1.03 | 0.867 | 0.799 | 0.959 | 1.13 | 1.08 | 0.84 | 0.938
SK-MES-1 | – | 1.4 | 1.3 | 1.21 | 1.23 | 0.875 | 1.05 | 0.976 | 0.804 | 0.669 | 0.941 | 1.05 | 1.05 | 0.981 | 1.01 | 0.971 | 1.08 | 1.02 | 0.984 | 0.875
NCI-H2170 | 0.527 | 0.521 | 0.607 | 0.563 | 0.501 | 0.962 | 1.12 | 1.05 | 1.01 | 1.02 | 0.988 | 1.06 | 1.1 | 1.03 | 1.07 | 0.909 | 1 | 1.01 | 0.938 | 0.998
NCI-H2085 | 1.09 | 0.975 | 1.17 | 1.13 | 1.08 | 0.966 | 1.09 | 0.902 | 1.03 | 0.882 | 0.951 | 1.01 | 1.01 | 0.938 | 1.03 | 0.952 | 1.01 | 1 | 0.983 | 0.892
SW 1573 | 0.879 | 1.05 | 1.05 | 0.866 | 0.945 | 0.893 | 1.22 | 0.911 | 0.804 | 0.487 | 0.975 | 0.934 | 0.94 | 0.893 | 0.999 | 0.984 | 1.26 | 1.09 | 0.948 | 0.79
NCI-H727 | 0.499 | 0.642 | 0.541 | 0.395 | 0.228 | 0.954 | 0.852 | 1.04 | 0.853 | 0.588 | 0.868 | 0.879 | 0.917 | 0.957 | 0.917 | 0.931 | 0.856 | 1.13 | 0.888 | 0.558
